In patent US9193768B2, “Peptide for inhibition of binding between angiopoietin-2 and integrin and use thereof” (Samsung Electronics Co., Ltd., priority 2012, dated 2015):
“Also recorded” adds a separate entry of the source. Values belong to the molecule of their own block, whether it stands above or below them.

Key:
[1] = system: U87MG cells; experiment: Ang2 dependent adhesion of U87MG cells to Ang2-coated wells (CellTiter-Glo luminescence); format: cell-based, human; conditions: for Ang2 dependent cell adhesion inhibition activity: Example 5.2, peptide 100 μg/ml, among the 41 peptides; for inhibition activity against the binding of Ang2 and integrin: FIG. 10, U87MG adhesion to Ang2-coated wells, each peptide 100 μg/ml
Procedure: A 96-well plate was treated with 100 μl of a solution obtained by diluting Ang2 (R&D systems; 623-AN-025/CF) in a phosphate buffered saline (PBS) at a concentration of 10 μg/ml and incubated at 4° C. for 16 hours so that the wells were coated with Ang2. Thereafter, the Ang2-coated 96 wells were washed twice with PBS, treated with 200 μl of PBS containing 2% (v/v) bovine serum albumin (BSA) and then incubated at a room temperature for 2 hours for blocking. For a negative control, wells that were blocked without Ang2 coating (i.e., treated with BSA only) were prepared.
150 μl of the thus obtained cell suspension was added to each well of the 96-well plate that was prepared by performing coating and blocking procedures and incubating the plate in a CO2 incubator at 37° C. for 2 hours to induce cell adhesion.
Then, the plate was washed 4 times with serum-free media that was warmed to 37° C. to remove cells that were not adhered. The adhesion level of cells was quantified by adding 200 μl of CellTiter-Glo reagent (Promega) diluted in IMDM at 1:1 and then, measuring luminescence at EnVision® Multilabel Reader (PerkinElmer) after 10 min.
When Ang2-coated plates were treated with U87MG cells in accordance with the same methods as in Example 1.1, they were co-treated with one of the 41 peptides derived from Ang2 set forth in Table 2 to investigate the inhibition effects of the peptides against the adhesion of U87MG cells (see FIG. 8). Each peptide was treated at a concentration of 100 μg/ml and the number of U87MG cells treated with each peptide was about 4×10^4. The measurement of cell adhesion level was carried out in the same manner as Example 1.1. That is, after the addition of 200 μl of CellTiter-Glo reagent (Promega) diluted in IMDM at 1:1, their luminescence was measured at EnVision® Multilabel Reader (PerkinElmer) after 10 min.
When Ang2-coated plates were treated with U87MG cells in accordance with the same methods as in Example 1.1, they were co-treated with the C-body produced in Example 8 to investigate inhibition effects of C-body treatment on the adhesion of U87MG cells. The C-body was treated at a concentration of 20 μg/ml or 5 μg/ml, and the number of U87MG cells used was about 4×10^4 at each concentration.

[2] = target: T1, integrin (αVβ3) (Homo sapiens, UniProt P05106+P06756); experiment: ELISA: binding of Ang2 protein (wild type or Q362A) to coated integrin; conditions: 5 μg/ml protein, FIG. 11
T1 construct: purchased R&D systems
T1 sequence (P06756 31-889 limits assumed): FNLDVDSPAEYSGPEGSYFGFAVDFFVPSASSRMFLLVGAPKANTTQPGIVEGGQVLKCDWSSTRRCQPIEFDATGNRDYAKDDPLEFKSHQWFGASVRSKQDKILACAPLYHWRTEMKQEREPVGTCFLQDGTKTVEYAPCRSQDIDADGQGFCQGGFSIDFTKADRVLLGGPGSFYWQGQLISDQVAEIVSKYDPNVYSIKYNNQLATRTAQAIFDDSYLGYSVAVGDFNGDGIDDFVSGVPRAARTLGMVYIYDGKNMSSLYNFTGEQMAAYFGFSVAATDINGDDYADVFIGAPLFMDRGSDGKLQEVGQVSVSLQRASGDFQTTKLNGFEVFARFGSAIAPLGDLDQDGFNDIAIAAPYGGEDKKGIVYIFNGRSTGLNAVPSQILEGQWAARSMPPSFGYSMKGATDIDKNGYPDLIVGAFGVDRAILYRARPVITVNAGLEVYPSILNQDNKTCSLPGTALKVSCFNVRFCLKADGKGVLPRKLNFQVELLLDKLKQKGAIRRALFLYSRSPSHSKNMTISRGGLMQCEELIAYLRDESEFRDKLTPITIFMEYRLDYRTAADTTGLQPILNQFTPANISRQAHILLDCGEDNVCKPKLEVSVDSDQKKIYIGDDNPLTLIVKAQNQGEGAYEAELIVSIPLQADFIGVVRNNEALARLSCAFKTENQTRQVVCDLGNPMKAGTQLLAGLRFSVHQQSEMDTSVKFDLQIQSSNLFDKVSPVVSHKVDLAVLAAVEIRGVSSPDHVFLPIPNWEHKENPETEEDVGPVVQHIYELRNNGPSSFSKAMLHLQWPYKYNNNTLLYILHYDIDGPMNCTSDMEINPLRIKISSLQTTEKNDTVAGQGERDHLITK
T1 sequence (P06756 891-992 partner limits assumed): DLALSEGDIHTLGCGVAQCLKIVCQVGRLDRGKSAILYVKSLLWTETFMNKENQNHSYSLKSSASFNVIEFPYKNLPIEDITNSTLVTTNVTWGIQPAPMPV
T1 sequence (P05106 27-718 limits assumed): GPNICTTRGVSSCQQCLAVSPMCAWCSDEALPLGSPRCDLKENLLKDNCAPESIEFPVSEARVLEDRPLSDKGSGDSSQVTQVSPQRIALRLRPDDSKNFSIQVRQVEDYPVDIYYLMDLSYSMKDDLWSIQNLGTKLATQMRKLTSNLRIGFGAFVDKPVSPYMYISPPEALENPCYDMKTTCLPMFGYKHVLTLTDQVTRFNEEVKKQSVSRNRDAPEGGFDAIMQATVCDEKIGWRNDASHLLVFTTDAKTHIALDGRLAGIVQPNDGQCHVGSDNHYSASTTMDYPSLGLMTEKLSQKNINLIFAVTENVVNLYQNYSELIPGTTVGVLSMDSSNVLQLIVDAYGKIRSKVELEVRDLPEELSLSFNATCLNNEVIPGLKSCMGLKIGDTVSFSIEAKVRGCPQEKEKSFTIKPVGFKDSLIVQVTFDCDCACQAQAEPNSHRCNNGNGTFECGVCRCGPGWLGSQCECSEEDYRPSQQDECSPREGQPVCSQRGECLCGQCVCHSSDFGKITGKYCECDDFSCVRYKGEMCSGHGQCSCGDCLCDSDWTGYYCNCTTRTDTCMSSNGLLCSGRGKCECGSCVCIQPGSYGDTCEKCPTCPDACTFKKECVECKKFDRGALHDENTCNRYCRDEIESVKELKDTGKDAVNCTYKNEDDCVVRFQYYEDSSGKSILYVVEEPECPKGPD
Procedure: After an ELISA plate was coated with diluents obtained by diluting 3 kinds of integrin proteins (alpha5beta1 (α5β1; α5: NCBI Accession No. P08648, β1: NCBI Accession No. P05556), alphaVbeta1 (αVβ1; αV: NCBI Accession No. P06756, β1: NCBI Accession No. P05556), and alphaVbeta3 (αVβ3; αV: NCBI Accession No. P06756, β3: NCBI Accession No. P05106); R&D systems)) in PBS at a concentration of 5 μg/ml (18 hours, 4° C.), it was blocked with 1% (v/v) BSA at a room temperature for 2 hours. Thereafter, it was treated with Ang2 protein having FLAG sequences (DYKDDDDK, Sigma) tagged at its N-terminal (FLAG-Ang2, 0.1 ml of Ang2 protein solution diluted in PBS at a concentration of 10 μg/ml), incubated at a room temperature for 2 hours, and washed 5 times with PBS-t (0.1% (v/v) triton X-100 in PBS). Then, it was followed by the addition of anti-FLAG antibody (Sigma) conjugated with horse radish peroxidase (HRP) and washed 5 times with PBS-t. Binding between Ang2 and 3 kinds of the integrins was verified indirectly by measuring the quantity of anti-FLAG antibody remaining in the ELISA plate through color development reaction using TMB (3,3,5,5-tetramethylbenzidine) as a substrate of HRP. As a negative control, one plate which was blocked without Ang2 protein treatment (BSA treatment only) was used. […]

[3] = target: T2, Tie2 proteins (Q02763) (Homo sapiens, UniProt Q02763); experiment: ELISA: binding of Ang2 protein (wild type or Q362A) to coated Tie2; conditions: Tie2 coated ELISA plates; FIG. 12
T2 construct: purchased R&D systems
T2 sequence (Q02763 23-1124): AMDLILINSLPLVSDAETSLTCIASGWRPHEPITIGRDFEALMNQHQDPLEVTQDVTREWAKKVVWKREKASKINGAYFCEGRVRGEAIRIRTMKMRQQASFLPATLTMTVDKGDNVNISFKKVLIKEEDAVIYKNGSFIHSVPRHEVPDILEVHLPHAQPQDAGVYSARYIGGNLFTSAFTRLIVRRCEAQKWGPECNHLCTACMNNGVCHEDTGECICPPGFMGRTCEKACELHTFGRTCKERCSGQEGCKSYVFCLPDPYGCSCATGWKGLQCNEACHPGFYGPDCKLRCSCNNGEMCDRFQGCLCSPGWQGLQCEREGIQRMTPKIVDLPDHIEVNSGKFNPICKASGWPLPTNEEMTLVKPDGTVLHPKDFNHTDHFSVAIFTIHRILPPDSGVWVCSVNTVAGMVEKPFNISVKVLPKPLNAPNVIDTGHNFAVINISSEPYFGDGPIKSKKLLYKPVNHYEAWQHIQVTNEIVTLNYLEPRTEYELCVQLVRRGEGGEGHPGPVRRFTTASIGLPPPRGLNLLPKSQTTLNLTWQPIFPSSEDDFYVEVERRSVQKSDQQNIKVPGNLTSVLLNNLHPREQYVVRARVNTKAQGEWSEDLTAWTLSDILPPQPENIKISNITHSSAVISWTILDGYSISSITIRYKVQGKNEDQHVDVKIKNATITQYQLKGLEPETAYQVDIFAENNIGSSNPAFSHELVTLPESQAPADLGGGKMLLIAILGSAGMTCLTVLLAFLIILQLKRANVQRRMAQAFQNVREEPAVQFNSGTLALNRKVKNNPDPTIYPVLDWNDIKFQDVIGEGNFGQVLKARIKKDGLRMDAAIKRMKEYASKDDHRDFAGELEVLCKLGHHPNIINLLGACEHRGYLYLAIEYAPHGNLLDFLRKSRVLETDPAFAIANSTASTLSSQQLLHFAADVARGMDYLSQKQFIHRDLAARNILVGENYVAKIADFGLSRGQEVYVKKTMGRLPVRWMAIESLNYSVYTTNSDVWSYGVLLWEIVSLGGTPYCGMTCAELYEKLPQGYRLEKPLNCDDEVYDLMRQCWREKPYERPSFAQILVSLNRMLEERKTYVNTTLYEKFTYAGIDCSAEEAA
Description: The Y axis represents binding levels of each Ang2 protein to coated Tie2 or negative control BSA.

[4] = system: U87MG cells; experiment: U87MG cancer cell invasion in matrigel-coated transwell chamber; format: cell-based, human; conditions: 5 μg/ml in lower chamber, 48 hours; FIG. 14
Procedure: U87MG cells which underwent serum starvation for two days were detached using a cell dissociation solution (EDTA solution) and diluted in 0% serum IMDM media, and then 7.5×10^4 of the cells were each treated in an upper chamber of a matrigel-coated transwell chamber (24 wells, BD bioscience). Lower chambers were filled with a diluent obtained by diluting wild type Ang2 protein or its Q362A modified form (see Example 6) in 2% serum IMDM media at a concentration of 5 μg/ml. After 48 hours passed, the cells were dyed using calcein-AM solution (4 μg/ml; BD Biosciences) and observed using a fluorescence microscope to measure the number of the cells which invaded toward the bottom.
The left part of FIG. 14 indicates the number of the cells that migrated to the lower chambers, and the right part illustrates the observation results of fluorescence treatment of the cells which migrated to the lower chambers, using a fluorescence microscope. In FIG. 14, ‘−’ indicates a negative control where the lower chamber was not treated with Ang2 protein or its modified form.

Molecule: EYWLG NEFVS QLTNQ (EYWLGNEFVSQLTNQ; Synthetic Peptide 15) [SEQ ID No. 15, 15 consecutive amino acids (352 to 366) of the Ang2 protein]
- Ang2 dependent cell adhesion inhibition activity ([1]; listed as 15): best Ang2 dependent cell adhesion inhibition activity
- Ang2 dependent cell adhesion inhibition activity ([1]; listed as Peptide 15): excellent Ang2-dependent cell adhesion inhibition activity
- inhibition activity against the binding of Ang2 and integrin [1]: remarkably high inhibition activity

Molecule: HTTNG IYTLT FPNST (HTTNGIYTLTFPNST; Synthetic Peptide 3) [SEQ ID No. 3]
- inhibition activity against the binding of Ang2 and integrin [1]: remarkably high inhibition activity; also recorded: excellent integrin-Ang2 binding inhibition activity

Molecule: IYTLT FPNST EEIKA (IYTLTFPNSTEEIKA; Synthetic Peptide 4) [SEQ ID No. 4]
- inhibition activity against the binding of Ang2 and integrin [1]: remarkably high inhibition activity; also recorded: excellent integrin-Ang2 binding inhibition activity

Molecule: LNYRI HLKGL TGTAG (LNYRIHLKGLTGTAG; Synthetic Peptide 24) [SEQ ID No. 24]
- inhibition activity against the binding of Ang2 and integrin [1]: remarkably high inhibition activity

Molecule: NEFVS QLTNQ QRYVL (NEFVSQLTNQQRYVL; Synthetic Peptide 16) [SEQ ID No. 16]
- inhibition activity against the binding of Ang2 and integrin [1]: remarkably high inhibition activity

Molecule: QLTNQ QRYVL KIHLK (QLTNQQRYVLKIHLK; Synthetic Peptide 17) [SEQ ID No. 17]
- inhibition activity against the binding of Ang2 and integrin [1]: remarkably high inhibition activity

Molecule: WKGSG YSLKA TTMMI (WKGSGYSLKATTMMI; Synthetic Peptide 40) [SEQ ID No. 40]
- inhibition activity against the binding of Ang2 and integrin [1]: remarkably high inhibition activity

- binding level to integrin relative to wild type Ang2 [2]: ≤ 50%
- inhibition of Ang2-integrin binding by Q362A modification [2]: ≥ 50%
- binding level to Tie2 compared with wild type Ang2 [3]: did not show any significant differences
B1: Q362A: FLAG-Ang2 protein modified form where glutamine at amino acid 362 (SEQ ID No. 42) is substituted by alanine (protein)
chain: MWQIVFFTLSCDLVLAAAYNNFRKSMDSIGKKQYQVQHGSCSYTFLLPEMDNCRSSSSPYVSNAVQRDAPLEYDDSVQRLQVLENIMENNTQWLMKLENYIQDNMKKEMVEIQQNAVQNQTAVMIEIGTNLLNQTAEQTRKLTDVEAQVLNQTTRLELQLLEHSLSTNKLEKQILDQTSEINKLQDKNSFLEKKVLAMEDKHIIQLQSIKEEKDQLQVLVSKQNSIIEELEKKIVTATVNNSVLQKQQHDLMETVNNLLTMMSTSNSAKDPTVAKEEQISFRDCAEVFKSGHTTNGIYTLTFPNSTEEIKAYCDMEAGGGGWTIIQRREDGSVDFQRTWKEYKVGFGNPSGEYWLGNEFVSALTNQQRYVLKIHLKDWEGNEAYSLYEHFYLSSEELNYRIHLKGLTGTAGKISSISQPGNDFSTKDGDNDKCICKCSQMLTGGWWFDACGPSNLNGMYYPQRQNTNKFNGIKWYYWKGSGYSLKATTMMIRPADF
modifications: FLAG tag; Human Ang2 protein
- induction level of cancer cell invasion compared with wild type Ang2 protein [4]: remarkably low induction level of cancer cell invasion (approximately half or so)
